# Assay results taken from patent US9795601B2, “Compositions and methods for cancer treatment” (BIOVISTA, INC., priority 2010, dated 2017).
# Tests used:
# Assay type in all cases: cell-based
# C32 (Melanoma) = assay: Cancer cell lines assay (Alamar Blue, day 5), C32; details: Homo sapiens, C32 cells
# Protocol: (§1) EXAMPLE. Cancer cell lines assay. Compounds are assayed for IC50 over a range of 50 nM to 1 mM, in triplicate, in standard 96-well plates. Initially, the number of cells in each line to plate on day 0 is determined, in order to have <80% confluency on day 5. Cells are plated on day 0. Cells are allowed to adhere 4 hours prior to adding the compound. On day 5 Alamar Blue is added to the media of the cells at 10% of the total volume of the well and incubated for approximately 4 hours at tissue culture conditions. The Alamar Blue reagent consists of an oxidation-reduction indicator that yields a colorimetric change and a fluorescent signal in response to metabolic activity. The dose response curves is evaluated in a BioTek Synergy 2 plate reader. The readout fluorescence values are then be exported to spreedsheet software, such as Microsoft Excel or GraphPad, and are graphed to show the reduction in relative cell number in response to compounds added to culture. Maximum inhibition is expressed as the maximum of:
# (§2) [formula] over all dosages tested for each drug.
# (§3) EXAMPLE. Linezolid is diluted in DMSO. One vial is thawed and administered on day 0, at concentrations 10 μM to 1 mM. Paclitaxel (0.1 μM) is used as a positive control. DMSO alone is used as a negative control. […]
# HT-144 (Melanoma) = assay: Cancer cell lines assay (Alamar Blue, day 5), HT-144; details: Homo sapiens
# Protocol: as §1, §2
# (§4) EXAMPLE. Linezolid is diluted in DMSO. One vial is thawed and administered on day 0, at concentrations 10 μM to 1 mM. Paclitaxel (0.1 μM) is used as a positive control. DMSO alone is used as a negative control. On day 5 Alamar Blue is added to the media of the cells at 10% of the total volume of the well and incubated for approximately 4 hours at tissue culture conditions.
# A172 (Malignant glioma) = assay: Cancer cell lines assay (Alamar Blue, day 5), A172; details: Homo sapiens
# Protocol: as §1, §2, §4
# SW-579 (Thyroid Cancer) = assay: Cancer cell lines assay (Alamar Blue, day 5), SW-579; details: SW579; SW-579 cells, Linezolid concentration 412 μM, negative control DMSO, p 0.0490; read-out: Linezolid % Maximum inhibition relative to negative control
# Protocol: as §1, §2, §3
Compound,"inhibition at 1000 µM (C32 (Melanoma); Linezolid concentration 1 mM, negative control DMSO, p 0.000720, read-out: Linezolid % Maximum inhibition relative to negative control) [%]","IC50 (HT-144 (Melanoma); 120 h, HT-144 (Melanoma) cells, Alamar Blue on day 5, read-out: Linezolid IC50) [µM]","inhibition at 1000 µM (HT-144 (Melanoma); HT-144 cells, Linezolid concentration 1 mM, negative control DMSO, p 0.00250, read-out: Linezolid % Maximum inhibition relative to negative control) [%]","IC50 (A172 (Malignant glioma); A 172, 120 h, A172 (Malignant glioma) cells, Alamar Blue on day 5, read-out: Linezolid IC50) [µM]","inhibition at 1000 µM (A172 (Malignant glioma); A 172, A172 cells, Linezolid concentration 1 mM, negative control DMSO, p 6 × 10^−6, read-out: Linezolid % Maximum inhibition relative to negative control) [%]",inhibition at 412 µM (SW-579 (Thyroid Cancer)) [%],"inhibition at 0.1 µM (C32 (Melanoma); 0.1 μM paclitaxel (positive control), read-out: Paclitaxel % Maximum inhibition relative to negative control) [%]","inhibition at 0.1 µM (HT-144 (Melanoma); HT-144 cells, 0.1 μM paclitaxel (positive control), read-out: Paclitaxel % Maximum inhibition relative to negative control) [%]","inhibition at 0.1 µM (A172 (Malignant glioma); A 172, A172 cells, 0.1 μM paclitaxel (positive control), read-out: Paclitaxel % Maximum inhibition relative to negative control) [%]"
CC(=O)NC[C@H]1CN(c2ccc(N3CCOCC3)c(F)c2)C(=O)O1 [Linezolid],26.1,500,90.7,600 to 700,81.8,14.5,,,
CC(=O)O[C@H]1C(=O)[C@@]2(C)[C@H]([C@H](OC(=O)c3ccccc3)[C@]3(O)C[C@H](OC(=O)[C@H](O)[C@@H](NC(=O)c4ccccc4)c4ccccc4)C(C)=C1C3(C)C)[C@]1(OC(C)=O)CO[C@@H]1C[C@@H]2O [Paclitaxel],,,,,,,90.8,86.9,92.9
